Consider five compounds from patent US20240285528A1, “NANO-MOLECULE AGGREGATE CONSISTING OF ORGANIC MATERIAL, INORGANIC MATERIAL OR SALT THEREOF AND PREPARATION METHOD THEREFOR” (SCAI THERAPEUTICS CO., LTD., priority 2021, published 2024).

The series is described as follows: Aqueous solubility (dispersity) by HPLC after stirring and filtration. The following applies: water, stirred at 25° C. for 10 hours, 0.2 micron filter. It is filed as physicochemical.

Take `Nc1ncnc2c1ncn2[C@@H]1O[C@H](CO)[C@@H](O)[C@H]1O` [Adenosine, adenosine]: the “Aqueous solubility (dispersity)” value is on record as 0.27 % (wt/v).

With `CC(=O)Oc1cc2c(cc1Cl)C(c1ccccc1C(=O)O)c1cc(Cl)c(OC(C)=O)cc1O2` [DCF-DA, 2′, 7′-dichlorofluorescin diacetate], the “Aqueous solubility (dispersity)” value is on record as 0.004 % (wt/v).

Consider `C=C1CCN([C@H](C)[C@](O)(Cn2cncn2)c2ccc(F)cc2F)CC1` [Epinaconazole, epinaconazole], for which the “Aqueous solubility (dispersity)” value is listed as 0.321 % (wt/v).

`O=C(Nc1ccc([N+](=O)[O-])cc1Cl)c1cc(Cl)ccc1O` [Niclosamide, niclosamide]: the “Aqueous solubility (dispersity)” value is listed as 0.0033 % (wt/v).

Consider `C=CC[C@@H]1/C=C(\C)C[C@H](C)C[C@H](OC)[C@H]2O[C@@](O)(C(=O)C(=O)N3CCCC[C@H]3C(=O)O[C@H](/C(C)=C/[C@@H]3CC[C@@H](O)[C@H](OC)C3)[C@H](C)[C@@H](O)CC1=O)[C@H](C)C[C@@H]2OC` [Tacrolimus, tacrolimus], for which the “Aqueous solubility (dispersity)” value was 7.6 % (wt/v).
